Experimental data from publication PMC5218480 (PLoS ONE, 2017).

Test system: MV-4-11 cells
Experiment: Gene expression microarray analysis (Affymetrix PrimeView) and GSEA
Type: cell-based, human
Design: RFU PODN (11730768_x_at) / Fold change /veh PODN (11730768_x_at) / RFU LINC00158 (11744669_a_at) / Fold change /veh LINC00158 (11744669_a_at) / RFU DUSP10 (11751237_a_at) / Fold change /veh DUSP10 (11751237_a_at) / RFU ID3 (11757404_x_at) / Fold change /veh ID3 (11757404_x_at) / RFU PLEKHG5 (11737974_s_at) / Fold change /veh PLEKHG5 (11737974_s_at) / RFU LRRC4B (11730491_at) / Fold change /veh LRRC4B (11730491_at) / RFU GIMAP4 (11747438_a_at) / Fold change /veh GIMAP4 (11747438_a_at) / RFU KRT8 (11758183_x_at) / Fold change /veh KRT8 (11758183_x_at) / RFU CNN1 (11734310_a_at) / Fold change /veh CNN1 (11734310_a_at) / RFU VPS37D (11726825_at) / Fold change /veh VPS37D (11726825_at) / RFU C10orf10 (11716522_x_at) / Fold change /veh C10orf10 (11716522_x_at) / RFU KIR2DL2 /// KIR2DL4 /// KIR2DL5A /// KIR2DL5B /// KIR2DS1 /// KIR2DS2 /// KIR2DS3 /// KIR2DS4 /// KIR3DL3 /// KIR3DL3 /// KIR3DS1 (11738374_at) / Fold change /veh KIR2DL2 /// KIR2DL4 /// KIR2DL5A /// KIR2DL5B /// KIR2DS1 /// KIR2DS2 /// KIR2DS3 /// KIR2DS4 /// KIR3DL3 /// KIR3DL3 /// KIR3DS1 (11738374_at) / RFU C1QL1 (11718748_at) / Fold change /veh C1QL1 (11718748_at) / RFU TMPRSS4 (11747572_a_at) / Fold change /veh TMPRSS4 (11747572_a_at) / RFU HAMP (11756126_x_at) / Fold change /veh HAMP (11756126_x_at) / RFU RNFT2 (11725882_a_at) / Fold change /veh RNFT2 (11725882_a_at) / RFU NR4A2 (11747474_a_at) / Fold change /veh NR4A2 (11747474_a_at) / RFU ABCC12 (11746883_a_at) / Fold change /veh ABCC12 (11746883_a_at) / RFU TMEM136 (11760407_x_at) / Fold change /veh TMEM136 (11760407_x_at) / RFU CLDN22 /// WWC2 (11732394_at) / Fold change /veh CLDN22 /// WWC2 (11732394_at) / RFU HLA-DPB1 (11760878_x_at) / Fold change /veh HLA-DPB1 (11760878_x_at) / RFU SPINT1 (11716480_a_at) / Fold change /veh SPINT1 (11716480_a_at) / RFU GAP43 (11754022_s_at) / Fold change /veh GAP43 (11754022_s_at) / RFU A4GNT (11735810_at) / Fold change /veh A4GNT (11735810_at) / RFU PRB3 (11715151_x_at) / Fold change /veh PRB3 (11715151_x_at) / RFU TUBB4B (11761932_at) / Fold change /veh TUBB4B (11761932_at) / RFU CAPN14 (11732068_a_at) / Fold change /veh CAPN14 (11732068_a_at) / RFU TMCC2 (11721928_a_at) / Fold change /veh TMCC2 (11721928_a_at) / RFU IRGQ (11745062_a_at) / Fold change /veh IRGQ (11745062_a_at) / RFU FAM174B (11720279_a_at) / Fold change /veh FAM174B (11720279_a_at) / RFU TMPRSS4 (11748680_a_at) / Fold change /veh TMPRSS4 (11748680_a_at) / RFU FAM212B (11763350_a_at) / Fold change /veh FAM212B (11763350_a_at) / RFU PLEKHG5 (11743358_a_at) / Fold change /veh PLEKHG5 (11743358_a_at) / RFU ZSCAN30 (11745921_a_at) / Fold change /veh ZSCAN30 (11745921_a_at) / RFU CMKLR1 (11741424_a_at) / Fold change /veh CMKLR1 (11741424_a_at) / RFU LOC101060620 /// MAPK8IP1 (11723275_at) / Fold change /veh LOC101060620 /// MAPK8IP1 (11723275_at) / RFU SPTSSB (11747773_x_at) / Fold change /veh SPTSSB (11747773_x_at) / RFU PRSS12 (11739890_at) / Fold change /veh PRSS12 (11739890_at) / RFU BIN1 (11741810_x_at) / Fold change /veh BIN1 (11741810_x_at) / RFU WNT11 (11732464_a_at) / Fold change /veh WNT11 (11732464_a_at) / RFU C10orf10 (11716521_a_at) / Fold change /veh C10orf10 (11716521_a_at) / RFU C5orf56 (11738089_at) / Fold change /veh C5orf56 (11738089_at) / RFU CYB561 (11721691_x_at) / Fold change /veh CYB561 (11721691_x_at) / RFU ANKRD19P (11752326_a_at) / Fold change /veh ANKRD19P (11752326_a_at) / RFU OR2T12 /// OR2T33 /// OR2T8 (11738714_s_at) / Fold change /veh OR2T12 /// OR2T33 /// OR2T8 (11738714_s_at) / RFU VCAN (11748164_a_at) / Fold change /veh VCAN (11748164_a_at) / RFU JSRP1 (11732532_at) / Fold change /veh JSRP1 (11732532_at) / RFU KRTAP10-11 (11738290_x_at) / Fold change /veh KRTAP10-11 (11738290_x_at) / RFU MYO3A (11730013_a_at) / Fold change /veh MYO3A (11730013_a_at) / RFU EBF3 (11725865_a_at) / Fold change /veh EBF3 (11725865_a_at) / RFU CAMK2N1 (11719241_x_at) / Fold change /veh CAMK2N1 (11719241_x_at) / RFU C5orf56 (11738088_a_at) / Fold change /veh C5orf56 (11738088_a_at) / RFU OLFML3 (11715873_a_at) / Fold change /veh OLFML3 (11715873_a_at) / RFU LOC100653217 /// NTM (11731650_a_at) / Fold change /veh LOC100653217 /// NTM (11731650_a_at) / RFU MAPK11 (11762145_a_at) / Fold change /veh MAPK11 (11762145_a_at) / RFU FIZ1 (11724087_x_at) / Fold change /veh FIZ1 (11724087_x_at) / RFU OASL (11726364_x_at) / Fold change /veh OASL (11726364_x_at) / RFU SOX15 (11748057_x_at) / Fold change /veh SOX15 (11748057_x_at) / RFU CD79A (11719716_a_at) / Fold change /veh CD79A (11719716_a_at) / RFU HIST1H1D (11736915_at) / Fold change /veh HIST1H1D (11736915_at) / RFU CASKIN2 (11723855_a_at) / Fold change /veh CASKIN2 (11723855_a_at) / RFU LOC730098 (11760151_x_at) / Fold change /veh LOC730098 (11760151_x_at) / RFU OR4N2 (11742367_at) / Fold change /veh OR4N2 (11742367_at) / RFU PRRT2 (11749266_a_at) / Fold change /veh PRRT2 (11749266_a_at) / RFU SNX32 (11753110_a_at) / Fold change /veh SNX32 (11753110_a_at) / RFU CDHR5 (11726645_a_at) / Fold change /veh CDHR5 (11726645_a_at) / RFU RCAN1 (11760418_a_at) / Fold change /veh RCAN1 (11760418_a_at) / RFU FAM167A (11723789_a_at) / Fold change /veh FAM167A (11723789_a_at) / RFU FAM26E (11764081_at) / Fold change /veh FAM26E (11764081_at) / RFU ISYNA1 (11749810_s_at) / Fold change /veh ISYNA1 (11749810_s_at) / RFU ACY1 (11761880_at) / Fold change /veh ACY1 (11761880_at) / RFU 11764098_at / Fold change /veh 11764098_at / RFU SAMD14 (11745864_x_at) / Fold change /veh SAMD14 (11745864_x_at) / RFU NPB (11741838_a_at) / Fold change /veh NPB (11741838_a_at) / RFU TMPRSS6 (11731388_a_at) / Fold change /veh TMPRSS6 (11731388_a_at) / RFU KRTAP10-2 (11738614_at) / Fold change /veh KRTAP10-2 (11738614_at) / RFU ARHGAP8 /// PRR5-ARHGAP8 (11727945_x_at) / Fold change /veh ARHGAP8 /// PRR5-ARHGAP8 (11727945_x_at) / RFU KRTAP5-7 /// NADSYN1 (11734609_at) / Fold change /veh KRTAP5-7 /// NADSYN1 (11734609_at) / RFU RASL12 (11751679_a_at) / Fold change /veh RASL12 (11751679_a_at) / RFU CDKN2B (11736163_a_at) / Fold change /veh CDKN2B (11736163_a_at) / RFU PRF1 (11729649_at) / Fold change /veh PRF1 (11729649_at) / RFU, ZNF638 /// ZNF638-IT1 / Fold change vs veh, ZNF638 /// ZNF638-IT1 / RFU, PANK3 / Fold change vs veh, PANK3 / RFU, SH3YL1 / Fold change vs veh, SH3YL1 / RFU, ZEB2 / Fold change vs veh, ZEB2 / RFU, NRIP1 / Fold change vs veh, NRIP1 / RFU, PTTG1IP / Fold change vs veh, PTTG1IP / RFU, CAPN2 / Fold change vs veh, CAPN2 / RFU, MED14 / Fold change vs veh, MED14 / RFU, SNORA58 / Fold change vs veh, SNORA58 / RFU, C1orf63 / Fold change vs veh, C1orf63 / RFU, LRRFIP1 / Fold change vs veh, LRRFIP1 / RFU, NDUFAF7 / Fold change vs veh, NDUFAF7 / RFU, SLC12A2 / Fold change vs veh, SLC12A2 / RFU, IBTK / Fold change vs veh, IBTK / RFU, ESF1 / Fold change vs veh, ESF1 / Fold change vs veh, TMEM50B / RFU, TAOK1 / Fold change vs veh, TAOK1 / RFU, ACBD3 / Fold change vs veh, ACBD3 / RFU, TMA16 / Fold change vs veh, TMA16 / RFU, RWDD3 / Fold change vs veh, RWDD3 / RFU, BCAT1 / Fold change vs veh, BCAT1 / RFU, EDEM3 / Fold change vs veh, EDEM3 / RFU, TMEM33 / Fold change vs veh, TMEM33 / RFU, WDR75 / Fold change vs veh, WDR75 / RFU, AHCTF1 / Fold change vs veh, AHCTF1 / RFU, TFRC / Fold change vs veh, TFRC / RFU, ZDHHC17 / Fold change vs veh, ZDHHC17 / RFU, NOM1 / Fold change vs veh, NOM1 / RFU, ARL8B / Fold change vs veh, ARL8B / RFU, ZBTB11 / Fold change vs veh, ZBTB11 / RFU, TAMM41 / Fold change vs veh, TAMM41 / RFU, KIAA1704 /// LOC100996395 / Fold change vs veh, KIAA1704 /// LOC100996395 / RFU, ING1 / Fold change vs veh, ING1 / RFU, TRMT61B / Fold change vs veh, TRMT61B / RFU, FUBP3 / Fold change vs veh, FUBP3 / RFU, TP53 / Fold change vs veh, TP53 / RFU, TNKS2 / Fold change vs veh, TNKS2 / RFU, ZFP14 / Fold change vs veh, ZFP14 / RFU, ACTR2 / Fold change vs veh, ACTR2 / RFU, PPP3R1 / Fold change vs veh, PPP3R1 / RFU, PIK3R1 / Fold change vs veh, PIK3R1 / RFU, HNRNPA1 / Fold change vs veh, HNRNPA1 / RFU, RNF170 / Fold change vs veh, RNF170 / RFU, ZNF28 / Fold change vs veh, ZNF28 / RFU, RNGTT / Fold change vs veh, RNGTT / RFU, OGT / Fold change vs veh, OGT / RFU, BRD1 / Fold change vs veh, BRD1 / RFU, MARS / Fold change vs veh, MARS / RFU, ZNF655 / Fold change vs veh, ZNF655 / RFU, FAHD1 / Fold change vs veh, FAHD1 / RFU, BDP1 / Fold change vs veh, BDP1 / RFU, LRRCC1 / Fold change vs veh, LRRCC1 / RFU, ARID1A / Fold change vs veh, ARID1A / RFU, ZNF146 / Fold change vs veh, ZNF146 / RFU, ZNF330 / Fold change vs veh, ZNF330 / RFU, GPN3 / Fold change vs veh, GPN3 / RFU, C9orf123 / Fold change vs veh, C9orf123 / RFU, N4BP2L2 / Fold change vs veh, N4BP2L2 / RFU, ARFIP1 / Fold change vs veh, ARFIP1 / RFU, FAM179B / Fold change vs veh, FAM179B / RFU, BCL10 / Fold change vs veh, BCL10 / RFU, UHRF1BP1L / Fold change vs veh, UHRF1BP1L / RFU, BET1 / Fold change vs veh, BET1 / RFU, CNOT2 / Fold change vs veh, CNOT2 / RFU, ZNF268 / Fold change vs veh, ZNF268 / Fold change vs veh, ZNF507 / RFU, DGCR2 / Fold change vs veh, DGCR2 / RFU, WDSUB1 / Fold change vs veh, WDSUB1 / Fold change vs veh, HSP90B1 /// MIR3652 / RFU, ADSS / Fold change vs veh, ADSS / RFU, GK / Fold change vs veh, GK / RFU, ZNF148 / Fold change vs veh, ZNF148 / RFU, TAF9 / Fold change vs veh, TAF9 / RFU, SLC1A5 / Fold change vs veh, SLC1A5 / RFU, SLMO2 / Fold change vs veh, SLMO2 / RFU, ABCC4 / Fold change vs veh, ABCC4 / RFU, LOC101060439 /// RAP1B / Fold change vs veh, LOC101060439 /// RAP1B / RFU, RFX7 / Fold change vs veh, RFX7 / RFU, GTPBP10 / Fold change vs veh, GTPBP10 / RFU, CNEP1R1 / Fold change vs veh, CNEP1R1 / RFU, BIVM-ERCC5 /// ERCC5 / Fold change vs veh, BIVM-ERCC5 /// ERCC5 / RFU, ILF3 / Fold change vs veh, ILF3 / RFU 11762660_at / Fold change /veh 11762660_at / RFU VCAN (11757783_s_at) / Fold change /veh VCAN (11757783_s_at) / RFU DDX43 (11728927_at) / Fold change /veh DDX43 (11728927_at) / RFU KRT8 (11758188_x_at) / Fold change /veh KRT8 (11758188_x_at) / RFU NKD1 (11759106_at) / Fold change /veh NKD1 (11759106_at) / RFU SRD5A1 (11742802_a_at) / Fold change /veh SRD5A1 (11742802_a_at) / RFU TPSAB1 /// TPSB2 (11721975_s_at) / Fold change /veh TPSAB1 /// TPSB2 (11721975_s_at) / RFU GSTM3 (11746129_a_at) / Fold change /veh GSTM3 (11746129_a_at) / RFU IL23R (11737362_x_at) / Fold change /veh IL23R (11737362_x_at) / RFU TMEM51 (11727254_a_at) / Fold change /veh TMEM51 (11727254_a_at) / RFU PIWIL2 (11732686_x_at) / Fold change /veh PIWIL2 (11732686_x_at) / RFU ORM1 (11744905_x_at) / Fold change /veh ORM1 (11744905_x_at) / RFU CCDC152 (11743942_at) / Fold change /veh CCDC152 (11743942_at) / RFU ECM1 (11717891_a_at) / Fold change /veh ECM1 (11717891_a_at) / RFU IL23R (11748794_a_at) / Fold change /veh IL23R (11748794_a_at) / RFU TNFAIP8L3 (11732012_x_at) / Fold change /veh TNFAIP8L3 (11732012_x_at) / RFU MBOAT4 (11741988_at) / Fold change /veh MBOAT4 (11741988_at) / RFU 11764193_at / Fold change /veh 11764193_at / RFU TMEM53 (11763286_at) / Fold change /veh TMEM53 (11763286_at) / RFU MAGEB2 (11727129_at) / Fold change /veh MAGEB2 (11727129_at) / RFU TMEM200A (11744735_a_at) / Fold change /veh TMEM200A (11744735_a_at) / RFU CCDC152 (11751479_a_at) / Fold change /veh CCDC152 (11751479_a_at) / RFU FAM211A (11726209_a_at) / Fold change /veh FAM211A (11726209_a_at) / RFU RGS16 (11746705_a_at) / Fold change /veh RGS16 (11746705_a_at) / RFU VCAN (11755009_s_at) / Fold change /veh VCAN (11755009_s_at) / RFU RHOB (11743442_s_at) / Fold change /veh RHOB (11743442_s_at) / RFU RGS16 (11720943_a_at) / Fold change /veh RGS16 (11720943_a_at) / RFU RGS16 (11720944_at) / Fold change /veh RGS16 (11720944_at) / RFU, VPS4B / Fold change vs veh, VPS4B / RFU, CREB1 / Fold change vs veh, CREB1 / RFU, DNAJC13 / Fold change vs veh, DNAJC13 / RFU, GNAQ / Fold change vs veh, GNAQ / RFU, CDK5R1 / Fold change vs veh, CDK5R1 / RFU, ZRANB3 / Fold change vs veh, ZRANB3 / RFU, CUL4A / Fold change vs veh, CUL4A / RFU, CCNY / Fold change vs veh, CCNY / RFU, UFL1 / Fold change vs veh, UFL1 / RFU, COG3 / Fold change vs veh, COG3 / RFU, DIAPH2 / Fold change vs veh, DIAPH2 / RFU, SKA2 / Fold change vs veh, SKA2 / RFU, AFF3 / Fold change vs veh, AFF3 / RFU, LMF1 / Fold change vs veh, LMF1 / RFU, IPO11 / Fold change vs veh, IPO11 / RFU, DFFB / Fold change vs veh, DFFB / RFU, FOXP1 / Fold change vs veh, FOXP1 / RFU, CARD8 / Fold change vs veh, CARD8 / RFU, STRN3 / Fold change vs veh, STRN3 / RFU, ADK / Fold change vs veh, ADK / RFU, RASSF2 / Fold change vs veh, RASSF2 / RFU, WIPF1 / Fold change vs veh, WIPF1 / RFU, LARP1B / Fold change vs veh, LARP1B / RFU, RASA1 / Fold change vs veh, RASA1 / RFU, RB1 / Fold change vs veh, RB1 / RFU, PPFIA1 / Fold change vs veh, PPFIA1 / RFU, MAT2A / Fold change vs veh, MAT2A / RFU, CCT5 / Fold change vs veh, CCT5 / RFU, WDR92 / Fold change vs veh, WDR92 / RFU, CUX1 / Fold change vs veh, CUX1 / RFU, TTC7A / Fold change vs veh, TTC7A / RFU, TMEM135 / Fold change vs veh, TMEM135 / RFU, DEPTOR / Fold change vs veh, DEPTOR / RFU, CPM / Fold change vs veh, CPM / RFU, DNAJB6 / Fold change vs veh, DNAJB6 / RFU, CACNA2D3 / Fold change vs veh, CACNA2D3 / RFU, DTX4 / Fold change vs veh, DTX4 / RFU, TFCP2 / Fold change vs veh, TFCP2 / RFU, GMCL1 /// GMCL1P1 / Fold change vs veh, GMCL1 /// GMCL1P1 / RFU, AEBP2 / Fold change vs veh, AEBP2 / RFU, SNHG1 /// SNORD22 /// SNORD25 /// SNORD26 /// SNORD27 /// SNORD28 /// SNORD29 /// SNORD31 / Fold change vs veh, SNHG1 /// SNORD22 /// SNORD25 /// SNORD26 /// SNORD27 /// SNORD28 /// SNORD29 /// SNORD31 / Fold change (Aza/veh), C12orf56 (ProbeSet 11735607_a_at) / Fold change (ACY-1035/veh), C12orf56 (ProbeSet 11735607_a_at) / Fold change (Aza/veh), FGFR1OP (ProbeSet 11751329_s_at) / Fold change (ACY-1035/veh), FGFR1OP (ProbeSet 11751329_s_at) / Fold change (Aza/veh), VPS36 (ProbeSet 11739960_a_at) / Fold change (ACY-1035/veh), VPS36 (ProbeSet 11739960_a_at) / RFU SYPL1 (11715823_x_at) / Fold change /veh SYPL1 (11715823_x_at) / RFU IGFBP7 (11715501_s_at) / Fold change /veh IGFBP7 (11715501_s_at) / RFU REEP3 (11722064_at) / Fold change /veh REEP3 (11722064_at) / RFU IGLL1 (11728026_x_at) / Fold change /veh IGLL1 (11728026_x_at): dose or concentration left out as unconfirmed
Details: MV-4-11 cells, 48 hours

SMILES: Nc1ccc(-c2cccs2)cc1NC(=O)c1ccc2c(c1)cc(C1CC1)n2CCN1CCOCC1 [ACY-1035]
- Fold change /veh FAM211A (11726209_a_at): 1.04
